Our source for the IC50 values is ChEMBL document CHEMBL2057081, “Triterpenoid saponins from Xanthoceras sorbifolia Bunge and their inhibitory activity on human cancer cell lines” (Bioorg Med Chem Lett, 2012).

As usually defined, the IC50 is the concentration at which inhibition is half-maximal. A low value points to inhibition by little substance.

Holding throughout (type): functional, cell-based
In one assay the test system is HEp-2. The experiment in a line: Cytotoxicity against human Hep2 cells by MTT assay. (In general: Tetrazolium dyes change colour on reduction, which living cells bring about.)
A further assay concerns MCF7. As to the kind of experiment: Cytotoxicity against human MCF7 cells by MTT assay.
Assay [1] can be described thus: Cytotoxicity against human A375-S2 cells by MTT assay.
A further assay concerns HT-1080. As to the kind of experiment: Cytotoxicity against human HT1080 cells by MTT assay.
The subject of a further assay is PC-3. As to the kind of experiment: Cytotoxicity against human PC3 cells by MTT assay.
The test system of a further assay is HepG2. The experiment in a line: Cytotoxicity against human HepG2 cells by MTT assay.
Assay [2] in a line: Cytotoxicity against human MDA231 cells by MTT assay. As to conditions: MDA-MB-231.
The subject of another assay is A549. As to the kind of experiment: Cytotoxicity against human A549 cells by MTT assay.
In a further assay the test system is BGC-823. As to the kind of experiment: Cytotoxicity against human BGC823 cells by MTT assay.
For the next assay, the system named is HeLa. As to the kind of experiment: Cytotoxicity against human HeLa cells by MTT assay.

Turning to `C/C=C(/C)C(=O)O[C@@H]1[C@@H](O)[C@H](O[C@H]2[C@H](OC(C)=O)[C@]3(CO)[C@H](O)C[C@]4(C)C(=CC[C@@H]5[C@@]6(C)CC[C@H](O[C@@H]7O[C@H](C(=O)O)[C@@H](O)[C@H](O)[C@H]7O[C@@H]7O[C@H](CO)[C@@H](O)[C@H](O)[C@H]7O)C(C)(C)[C@@H]6CC[C@]54C)[C@@H]3CC2(C)C)O[C@H](C)[C@@H]1OC(=O)/C(C)=C\C` [BUNKANKASAPONIN F], the IC50 in the assay on HEp-2 was found to be 4.97 µM; in the assay on MCF7 it was 4.3 µM; in [1] it was 5.22 µM; in the assay with HT-1080 it was 1.75 µM; in the assay with PC-3, 2.28 µM; with HepG2, 2.45 µM. In addition, the IC50 was 3.24 µM in assay [2], 5.76 µM with A549, 11.3 µM in the assay with BGC-823 and 4.97 µM with HeLa.

With `O=c1[nH]cc(F)c(=O)[nH]1` [FLUOROURACIL], the IC50 came to 24.6 µM in the assay with HEp-2; 24.6 µM in the assay on MCF7; 9.92 µM in [1]; 3.06 µM in the assay on HT-1080; 35.8 µM with PC-3; 10.5 µM in the assay with HepG2. The IC50 in [2] worked out at 31.6 µM; in the assay on A549 it was 31.5 µM; in the assay on BGC-823, 15.7 µM; with HeLa, 10.4 µM.

`CC1(C)C[C@H]2C3=CC[C@@H]4[C@@]5(C)CC[C@H](O[C@@H]6O[C@H](CO[C@@H]7O[C@H](CO)[C@@H](O)[C@H](O)[C@H]7O)[C@@H](O)[C@H](O)[C@H]6O)C(C)(C)[C@@H]5CC[C@@]4(C)[C@]3(C)CC[C@@]2(CO[C@@H]2O[C@H](CO[C@@H]3O[C@H](CO)[C@@H](O)[C@H](O)[C@H]3O)[C@@H](O)[C@H](O)[C@H]2O[C@@H]2O[C@H](CO)[C@@H](O)[C@H](O)[C@H]2O)[C@@H](O)[C@@H]1O` [SORBIFOLIASIDE A]: the IC50 (with HEp-2; in the assay on MCF7; in [1]; in the assay with HT-1080; in the assay with PC-3; with HepG2) was more than 100 µM in each case. The IC50 (in [2]; with A549; in the assay on BGC-823; in the assay with HeLa) was more than 100 µM each time.

On to `C/C=C(/C)C(=O)O[C@@H]1[C@@H](O)[C@H](O[C@H]2[C@H](OC(C)=O)[C@]3(CO)[C@H](O)C[C@]4(C)C(=CC[C@@H]5[C@@]6(C)CC[C@H](O[C@@H]7O[C@H](C(=O)O)[C@@H](O)[C@H](O)[C@H]7O[C@@H]7O[C@H](CO)[C@@H](O)[C@H](O)[C@H]7O)[C@](C)(CO)[C@@H]6CC[C@]54C)[C@@H]3CC2(C)C)O[C@H](C)[C@@H]1OC(C)=O` [BUNKANKASAPONIN A], for which the IC50 with HEp-2 came to 17.6 µM; in the assay with MCF7, 12.7 µM; in assay [1], 18.1 µM; with HT-1080 it was 16.3 µM; with PC-3, 13.1 µM; in the assay with HepG2 it was 22.2 µM. For the same compound, the IC50 in [2] was determined as 12.2 µM; in the assay with A549, 41 µM; with BGC-823, 17.5 µM; in the assay on HeLa it was 22.2 µM.

In the case of `C/C=C(/C)C(=O)O[C@@H]1[C@@H](O)[C@H](O[C@H]2CC[C@]3(C)[C@H]4CC=C5[C@@H]6CC(C)(C)[C@@H](O)[C@H](O)[C@]6(CO[C@@H]6O[C@H](CO[C@@H]7O[C@H](CO)[C@@H](O)[C@H](O)[C@H]7O)[C@@H](O)[C@H](O)[C@H]6O)CC[C@@]5(C)[C@]4(C)CC[C@H]3C2(C)C)O[C@H](CO[C@@H]2O[C@H](CO)[C@@H](O)[C@H](O)[C@H]2O)[C@H]1O` [SORBIFOLIASIDE D], the IC50 (with HEp-2; with MCF7; in assay [1]; in the assay with HT-1080; in the assay with PC-3; with HepG2) was more than 100 µM each time. Besides, the IC50 (in assay [2]; with A549; with BGC-823; with HeLa) was more than 100 µM throughout.

As for `C/C=C(/C)C(=O)O[C@@H]1[C@@H](O)[C@H](O[C@H]2[C@H](O)[C@]3(COC(C)=O)[C@H](O)C[C@]4(C)C(=CC[C@@H]5[C@@]6(C)CC[C@H](O[C@@H]7O[C@H](C(=O)O)[C@@H](O)[C@H](O)[C@H]7O[C@@H]7O[C@H](CO)[C@@H](O)[C@H](O)[C@H]7O)[C@](C)(CO)[C@@H]6CC[C@]54C)[C@@H]3CC2(C)C)O[C@H](C)[C@@H]1OC(=O)/C(C)=C\C` [BUNKANKASAPONIN D], the half-inhibitory concentration (IC50) is more than 100 µM with HEp-2; 49.4 µM in the assay with MCF7; 20.4 µM in assay [1]; more than 100 µM in the assay with HT-1080; 13.2 µM in the assay with PC-3; 33.1 µM with HepG2. Further, the IC50 stood at 21.8 µM in [2], 31.7 µM with A549, 23.9 µM in the assay with BGC-823 and 55.5 µM in the assay with HeLa.

Regarding `C/C=C(/C)C(=O)O[C@@H]1[C@@H](O)[C@H](O[C@H]2[C@H](OC(C)=O)[C@]3(CO)[C@H](O)C[C@]4(C)C(=CC[C@@H]5[C@@]6(C)CC[C@H](O[C@@H]7O[C@H](C(=O)O)[C@@H](O)[C@H](O)[C@H]7O[C@@H]7O[C@H](CO)[C@@H](O)[C@H](O)[C@H]7O)[C@](C)(CO)[C@@H]6CC[C@]54C)[C@@H]3CC2(C)C)O[C@H](C)[C@@H]1OC(=O)/C(C)=C\C` [BUNKANKASAPONIN B], the 50% inhibitory concentration (IC50) with HEp-2 was determined as 4.72 µM; in the assay with MCF7 it was 2.46 µM; in [1], 4.14 µM; in the assay on HT-1080, 1.14 µM; in the assay on PC-3 it was 2.58 µM; in the assay on HepG2, 4.03 µM. The IC50 in assay [2] turned out to be 2.22 µM; in the assay on A549, 3.03 µM; in the assay with BGC-823 it was 2.5 µM; in the assay with HeLa, 4.03 µM.

On to `CC1(C)C[C@H]2C3=CC[C@@H]4[C@@]5(C)CC[C@H](O[C@@H]6O[C@H](CO[C@@H]7O[C@H](CO)[C@@H](O)[C@H](O)[C@H]7O)[C@@H](O)[C@H](O)[C@H]6O[C@@H]6O[C@H](CO)[C@@H](O)[C@H](O)[C@H]6O)C(C)(C)[C@@H]5CC[C@@]4(C)[C@]3(C)CC(=O)[C@@]2(CO[C@@H]2O[C@H](CO[C@@H]3O[C@H](CO)[C@@H](O)[C@H](O)[C@H]3O)[C@@H](O)[C@H](O)[C@H]2O)[C@@H](O)[C@@H]1O` [SORBIFOLIASIDE C], for which the IC50 (in the assay with HEp-2; in the assay on MCF7; in assay [1]; in the assay with HT-1080; in the assay with PC-3; with HepG2) was more than 100 µM throughout. For the same compound, the IC50 (in [2]; in the assay on A549; in the assay on BGC-823; with HeLa) was more than 100 µM each time.

Take `C/C=C(/C)C(=O)O[C@@H]1[C@@H](O)[C@H](O[C@H]2[C@H](O)[C@]3(COC(C)=O)[C@H](O)C[C@]4(C)C(=CC[C@@H]5[C@@]6(C)CC[C@H](O[C@@H]7O[C@H](C(=O)O)[C@@H](O)[C@H](O)[C@H]7O[C@@H]7O[C@H](CO)[C@@H](O)[C@H](O)[C@H]7O)[C@](C)(CO)[C@@H]6CC[C@]54C)[C@@H]3CC2(C)C)O[C@H](C)[C@@H]1OC(C)=O` [BUNKANKASAPONIN C]: the IC50 with HEp-2 is more than 100 µM; in the assay with MCF7, 91.4 µM; in assay [1], 23.3 µM; in the assay on HT-1080, more than 100 µM; in the assay on PC-3 it was 92.5 µM; with HepG2, 60.8 µM. Besides, the IC50 in assay [2] was 45.1 µM; with A549, 76.8 µM; in the assay with BGC-823, 82.6 µM; in the assay on HeLa it was more than 100 µM.
